This note sets out measurements from patent publication US12570988B2, “Aptamers that bind thiamine analogs and derivatives” (MeiraGTx Gene Regulation Limited, priority 2020, dated 2026).

The test system of data set [1] is riboswitch TPPm (E. coli thiM TPP aptamer). Kind of data set: Luciferase reporter with TPPm riboswitch in HEK 293 cells. It is filed as cell-based, human. To be noted: FIG. 1. The source says:
(§1) Riboswitch constructs: Aptamers were synthesized by Integrated DNA Technologies, Inc. and Golden Gate cloning strategy (New England Biolabs, NEB) was used to clone the synthesized aptamer sequences into intron-exon-intron cassette to replace the guanine aptamer in the G17 riboswitch cassette (see SEQ ID NO: 15 recited in WO 2016/126747, which is incorporated herein in its entirety) with a TPP aptamer from the Alishewanella tabrizica thiC gene (Microbiol Res. 2017 January; 195:71-80) or a TPP aptamer from the Escherichia coli thiM gene (Structure. 2006 September; 14(9):1459-68), generating riboswitch TPPz and TPPm, respectively.
(§2) Transfection: 3.5×10^4 human embryonic kidney (HEK) 293 cells were plated in a 96-well flat bottom plate the day before transfection. Plasmid DNA (500 ng) was added to a tube or a 96-well U-bottom plate. Separately, TransIT-293 reagent (Mirus; 1.4 μL) was added to 50 μL Optimem I media (Life Technologies) and allowed to sit for 5 minutes at room temperature (RT). Then, 50 μL of this diluted transfection reagent was added to the DNA, mixed, and incubated at RT for 20 min. Finally, 7 μL of this solution was added to a well of cells in the 96-well plate. Four hours after transfection, medium containing transfection solution was replaced by medium containing either TPP, fursultiamine, prosultiamine, bisbentiamine, beclotiamine hydrochloride, or sulbutiamine as aptamer inducers.
(§3) Firefly luciferase assay of cultured cells: Twenty-four hours after media change, plates were removed from the incubator, and equilibrated to RT for several minutes on a lab bench, then aspirated. Glo-lysis buffer (Promega, 100 μL, RT) was added, and the plates allowed to remain at RT for at least 5 minutes. Then, the well contents were mixed by 50 μL trituration, and 20 μL of each sample was mixed with 20 μL of bright-glo reagent (Promega) that had been diluted to 10% in glo-lysis buffer. 96 wells were spaced on an opaque white 384-well plate. Following a 5 min incubation at RT, luminescence was measured using a Tecan machine with 500 ms read time. The luciferase activity was expressed as mean arbitrary light units (ALU)±S.D., and fold induction was calculated as the quotient of the luciferase activity obtained from cells with TPP or analog treatment divided by the luciferase activity obtained from cells without TPP or analog treatment.

In data set [2] the test system is riboswitch TPPz (A. tabrizica thiC TPP aptamer). Kind of data set: Luciferase reporter with TPPz riboswitch in HEK 293 cells. In kind it is cell-based, human. To be noted: FIG. 1.
Text: as §1, §2, §3
(In a reporter assay the amount or activity of a reporter protein is the signal.)

Data set [3] deals with riboswitch 15D10. Description: Luciferase reporter with 15D10 riboswitch (Luci-15D10) in AML12 cells. In kind it is cell-based, mouse. To be noted: Mus musculus, AML12, 24 h, 50 μM; AML12 cells; Table 3; read-out: Fold increase in riboswitch 15D10-regulated luciferase expression, AML.
The subject of data set [4] is riboswitch 15D10. Kind of data set: Luciferase reporter with 15D10 riboswitch (Luci-15D10) in HEK 293 cells. It is filed as cell-based, human. To be noted: Homo sapiens, HEK293, 24 h, 50 μM; HEK 293 cells; Table 3; read-out: Fold increase in riboswitch 15D10-regulated luciferase expression, HEK. The gist of the method: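 Cells transfected with riboswitch-luciferase plasmid; 4 h later medium replaced with TPP or thiamine analogs (fursultiamine, prosultiamine, bisbentiamine, beclotiamine, sulbutiamine) as inducers.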

Data set [5] concerns luciferase expression in HEK 293 cells. Kind of data set: Screen of aptamer libraries A1-A3 for gene regulation activity with fursultiamine. In kind it is cell-based, human. To be noted: 50 μM fursultiamine, FIG. 4A. As for the experimental part: Three aptamer libraries A1, A2 and A3, were generated by randomizing nucleotides at 6 positions in, or adjacent to, regions J4-5, J2-4 and J3-2, respectively (see FIG. 3). Single bacterial colonies were picked and plasmids containing riboswitch constructs were screened in HEK 293 cells for improved gene regulation activity in response to 50 μM fursultiamine as compared to riboswitch 14G4. […] These riboswitches comprising re-engineered aptamer sequences also lead to significant enhancements of target gene expression in other cells types, including alpha mouse liver 12 (AML12), C2C12 (murine myoblast cell line), and adult retinal pigment epithelial cell line-19 (ARPE-19) (see FIG. 4B).

In the case of `CC(=C(CCOC(=O)C(C)C)SSC(CCOC(=O)C(C)C)=C(C)N(C=O)Cc1cnc(C)nc1N)N(C=O)Cc1cnc(C)nc1N` (stereo in doubt) [sulbutiamine], the “effect on luciferase expression, riboswitch TPPm” value (“effect … riboswitch TPPm” below) in data set [1] is listed as “weak or no effects on luciferase expression”. Besides, the “effect on luciferase expression, riboswitch TPPz” value (“effect … riboswitch TPPz” below) in data set [2] was “weak or no effects on luciferase expression”. As for `C/C(=C(\CCO)SC(=O)c1ccc(Oc2ccccc2)cc1Cl)N(C=O)Cc1cnc(C)nc1N` [Compound M149, (Z)—S-(2-(N-((4-amino-2-methylpyrimidin-5-yl)methyl)formamido)-5-hydroxypent-2-en-3-yl) 2-chloro-4-phenoxybenzothioate], the fold induction at 50 µM is 383 with riboswitch 15D10 [3] and 176 in the data set with riboswitch 15D10 [4]. Turning to `C/C(=C(\CCO)SC(=O)c1c(C)cc(Oc2ccccc2)cc1F)N(C=O)Cc1cnc(C)nc1N` [Compound M150, (Z)—S-(2-(N-((4-amino-2-methylpyrimidin-5-yl)methyl)formamido)-5-hydroxypent-2-en-3-yl) 2-fluoro-6-methyl-4-phenoxybenzothioate], the results for the fold induction at 50 µM in the data set on riboswitch 15D10 [3] and with riboswitch 15D10 [4] were 12 and 12.3, respectively. The matching figures for `C/C(=C(\CCO)SC(=O)c1ccc(Oc2cccc(Cl)c2)cc1C)N(C=O)Cc1cnc(C)nc1N` [Compound M151, (Z)—S-(2-(N-((4-amino-2-methylpyrimidin-5-yl)methyl)formamido)-5-hydroxypent-2-en-3-yl) 4-(3-chlorophenoxy)-2-methylbenzothioate]: 231 and 20.5. `C/C(=C(\CCO)SC(=O)c1ccc(Oc2ccccc2)cc1Oc1ccccc1)N(C=O)Cc1cnc(C)nc1N` [Compound M152, (Z)—S-(2-(N-((4-amino-2-methylpyrimidin-5-yl)methyl)formamido)-5-hydroxypent-2-en-3-yl) 2,4-diphenoxybenzothioate]: the fold induction at 50 µM in the data set with riboswitch 15D10 [3] stood at 36.6; in the data set with riboswitch 15D10 [4], 68.9. For the molecule `C/C(=C(\CCO)SC(=O)c1ccccc1Sc1ccccc1)N(C=O)Cc1cnc(C)nc1N` [Compound M153, (Z)—S-(2-(N-((4-amino-2-methylpyrimidin-5-yl)methyl)formamido)-5-hydroxypent-2-en-3-yl) 2-(phenylthio)benzothioate], the figures for the fold induction at 50 µM in the data set on riboswitch 15D10 [3] and in the data set with riboswitch 15D10 [4] were 535 and 442, respectively. As to `C/C(=C(\CCO)SC(=O)c1ccccc1Oc1ccc(N2CCCC2=O)cc1)N(C=O)Cc1cnc(C)nc1N` [Compound M155, (Z)—S-(2-(N-((4-amino-2-methylpyrimidin-5-yl)methyl)formamido)-5-hydroxypent-2-en-3-yl) 2-(4-(2-oxopyrrolidin-1-yl)phenoxy)benzothioate], the fold induction at 50 µM is 117 with riboswitch 15D10 [3] and 7.71 with riboswitch 15D10 [4].

In the case of `C/C(=C(\CCO)SC(=O)c1ccc(C(C)(C)C)cc1Oc1cccc(C(C)(C)C)c1)N(C=O)Cc1cnc(C)nc1N` [Compound M156, (Z)—S-(2-(N-((4-amino-2-methylpyrimidin-5-yl)methyl)formamido)-5-hydroxypent-2-en-3-yl) 4-(tert-butyl)-2-(3-(tert-butyl)phenoxy)benzothioate], the fold induction at 50 µM with riboswitch 15D10 [3] amounted to 10.1; with riboswitch 15D10 [4] it was 0.06. Turning to `C/C(=C(\CCO)SC(=O)c1ccccc1Oc1cccc2ccccc12)N(C=O)Cc1cnc(C)nc1N` [Compound M157, (Z)—S-(2-(N-((4-amino-2-methylpyrimidin-5-yl)methyl)formamido)-5-hydroxypent-2-en-3-yl) 2-(naphthalen-1-yloxy)benzothioate], the figures for the fold induction at 50 µM in the data set on riboswitch 15D10 [3] and with riboswitch 15D10 [4] were 316 and 118, respectively. For `C/C(=C(\CCO)SC(=O)c1cc(Cl)ccc1Oc1ccccc1Cl)N(C=O)Cc1cnc(C)nc1N` [Compound M158, (Z)—S-(2-(N-((4-amino-2-methylpyrimidin-5-yl)methyl)formamido)-5-hydroxypent-2-en-3-yl) 5-chloro-2-(2-chlorophenoxy)benzothioate], in that order: 235 and 96.9.

Turning to `C/C(=C(\CCO)SC(=O)c1cc(Cl)ccc1Oc1ccccc1Br)N(C=O)Cc1cnc(C)nc1N` [Compound M159, (Z)—S-(2-(N-((4-amino-2-methylpyrimidin-5-yl)methyl)formamido)-5-hydroxypent-2-en-3-yl) 2-(2-bromophenoxy)-5-chlorobenzothioate], the fold induction at 50 µM turned out to be 206 in the data set on riboswitch 15D10 [3] and 85.5 in the data set on riboswitch 15D10 [4]. Take `C/C(=C(\CCO)SC(=O)c1c(F)cccc1Oc1ccccc1Br)N(C=O)Cc1cnc(C)nc1N` [Compound M160, (Z)—S-(2-(N-((4-amino-2-methylpyrimidin-5-yl)methyl)formamido)-5-hydroxypent-2-en-3-yl) 2-(2-bromophenoxy)-6-fluorobenzothioate]: the values for the fold induction at 50 µM in the data set with riboswitch 15D10 [3] and with riboswitch 15D10 [4] were 131 and 79.5, respectively. Regarding `Cc1ncc(C[n+]2csc(CCCl)c2C)c(N)n1.Cl.[Cl-]` [beclotiamine hydrochloride], the “effect … riboswitch TPPm” value in data set [1] is recorded as “weak or no effects on luciferase expression”. The “effect … riboswitch TPPz” value in data set [2] was “weak or no effects on luciferase expression”. As for `C/C(=C(\CCOC(=O)c1ccccc1)SS/C(CCOC(=O)c1ccccc1)=C(/C)N(C=O)Cc1cnc(C)nc1N)N(C=O)Cc1cnc(C)nc1N` [bisbentiamine], the “effect … riboswitch TPPm” value in data set [1] is recorded as “weak or no effects on luciferase expression”. In data set [2], the “effect … riboswitch TPPz” value is on record as “weak or no effects on luciferase expression”.

B1: 1D10: re-engineered aptamer, encoding sequence SEQ ID NO:8 (nucleic acid)
DNA: ACAGGGGTCCGGCCTTTTCATTTGGCGCCGGTGAGATTATACCCTTTGAACCTGTTTACGGATAATGCCGCCGCAGGGAGT
modifications: expressed or natural sequence
With B1, the “fursultiamine-dependent induction compared to parent construct 14G4” value in data set [5] is on record as “increase in fursultiamine-dependent induction”.

B2: 6C4: re-engineered aptamer, encoding sequence SEQ ID NO:16 (nucleic acid)
DNA: ACGGGGGTCCGGCCTTTTCATTTGGCGCCGGTGAGAGCACACCCTTCGAACCTGTTTACGGATAATGCCGCCGCAGGGAGT
modifications: expressed or natural sequence
Regarding B2, the “fursultiamine-dependent induction compared to parent construct 14G4” value in data set [5] is “increase in fursultiamine-dependent induction”.

B3: 4H2: re-engineered aptamer, encoding sequence SEQ ID NO:15 (nucleic acid)
DNA: ACAGGGGTCCGGCCTTTTCATTTGGCGCCGGTGAGAGCACACCCTTCGGACCTGTTTACGGATAATGCCGCCGCAGGGAGT
modifications: expressed or natural sequence
On to B3, for which the “fursultiamine-dependent induction compared to parent construct 14G4” value in data set [5] was “increase in fursultiamine-dependent induction”.

B4: 3H4: re-engineered aptamer, encoding sequence SEQ ID NO:9 (nucleic acid)
DNA: ACAGGGGTCCGGCCTTTTCATTTGGCGCCGGTGAGAGCACACCCTTTGAACCTGTTCACGGATAATGCCGCTGCAGGGAGT
modifications: expressed or natural sequence
In the case of B4, in data set [5], the “fursultiamine-dependent induction compared to parent construct 14G4” value was “increase in fursultiamine-dependent induction”.

B5: 6B4: re-engineered aptamer, encoding sequence SEQ ID NO:14 (nucleic acid)
DNA: ACAGGGGTCCGGCCTTTTCATTTGGCGCCGGTGAGAGCACACCCTTGTGACCTGTTTACGGATAATGCCGCCGCAGGGAGT
modifications: expressed or natural sequence
B5: the “fursultiamine-dependent induction compared to parent construct 14G4” value in data set [5] is “increase in fursultiamine-dependent induction”.
